In patent US20140142129A1, “METHODS OF TREATING A DISEASE OR DISORDER ASSOCIATED WITH BRUTON'S TYROSINE KINASE” (Celgene Avilomics Research, Inc,, priority 2012, published 2014):

Experiments:
[1] = tested on: B-cell non-Hodgkin lymphoma; assay: Single agent (monotherapy) clinical study in B-cell non-Hodgkin lymphoma patients; type: in vivo
[2] = Environmental stability (heat, acid, base); type: physicochemical
[3] = Safety in single dose studies in healthy subjects; type: in vivo, human

Compound	patients with stable disease continuing on treatment ([1]; B-cell non-Hodgkin lymphoma, monotherapy, as of Sep. 11, 2012)	patients with decreased lymph node size ([1]; evaluable B-NHL patients, monotherapy)	environmental instabilities (heat, acid, base) [2]	safety [3]	maximum tolerated dose (MTD) ([1]; single agent, up to 750 mg PO QD)
C=CC(=O)Nc1cccc(Nc2nc(Nc3ccc(OCCOC)cc3)ncc2F)c1.O=S(=O)(O)c1ccccc1 [Compound 1 besylate, N-(3-(5-fluoro-2-(4-(2-methoxyethoxy)phenylamino)pyrimidin-4-ylamino)phenyl)acrylamide benzenesulfonic acid salt]	9 out of 17	Six of eleven	no environmental instabilities	–	–
C=CC(=O)Nc1cccc(Nc2nc(Nc3ccc(OCCOC)cc3)ncc2F)c1 [Compound 1, N-(3-(5-fluoro-2-(4-(2-methoxyethoxy)phenylamino)pyrimidin-4-ylamino)phenyl)acrylamide]	–	–	–	adequate safety	has not yet been reached
